According to patent US20170240592A1, “GADD45BETA/MKK7 INHIBITOR FOR THE TREATMENT OF A RESISTANT HAEMATOLOGICAL MALIGNANCY” (IMPERIAL INNOVATIONS LIMITED, priority 2014, published 2017):

Legend:
[1] = in vivo pharmacokinetic analyses after single intravenous injection; conditions: calculated from measured PK values, k0=k1×Vd×Cp
Method: (§2) In vitro pharmacokinetic assays were performed according to established, in-house protocols and included: plasma stability (human), thermodynamic solubility (PBS pH 7.4, at 37° C. for 14 days), microsomal stability (human), plasma protein binding (PPB; mouse and human), and distribution coefficient (Log D). In vivo pharmacokinetic analyses were also performed at Cyprotex according to established, in-house protocols. Briefly, the peptides were dissolved in PBS and administered by single intravenous injection to CD1 male mice at the dose of 10 mg/kg (25-30 g of total body weight; n=3 mice per time point per compound). Blood samples were collected in heparinized tubes at up to 7 time points after this injection (i.e. 0.08, 0.25, 0.5, 1, 2, 4 and 8 hr), and the plasma concentrations of the test peptide were determined at each time point by LC-MS/MS, using a five-point standard curve covering a peptide concentration range from 3 to 3,000 ng/mL. Standard curves were prepared using blank plasma matrices and treated in the same manner as the test samples. […] Values were calculated from the data of the peptide plasma concentration versus time curves using a non-compartmental model analysis, as described elsewhere (Groulx, 2006; Landaw and Di Stefano 3rd, 1982). The doses of z-DTP2 and DTP3 predicted to achieve the therapeutic plasma concentration of 1 μM at the steady state were calculated from the measured pharmacokinetic values using the following equation: k0=k1×Vd×Cp (where Vd is expressed in L/kg; Cp is the plasma concentration at the steady state expressed in mg/L; k0 is the zero order input expressed in mg/kg/hr; k1 is the first order elimination constant [0.693/t1/2]).

[2] = system: multiple myeloma cell lines; assay: [3H]thymidine incorporation assay, survival of multiple myeloma cell lines; type: cell-based, human; conditions: 6-day treatment; all lines tested apart from RPMI-8226 and KMM-1
Method: (§1) Values express the percentage of live cells present in the treated cultures relative to the live cells present in the respective untreated cultures and denote means±SD ([WM]; n=3). UT, untreated. […] Values express the percentage of inhibition of Gadd45β binding to MKK7 relative to the binding measured in the absence of peptide. […] Co-immunoprecipitations (IP) were performed using an anti-FLAG antibody (a-FLAG); western blots (WB) were developed using an anti-HA or an anti-MKK7 antibody, as shown.
[^3H]Thymidine incorporation and trypan blue exclusion assays were performed using standard methods (Mauro et al., 2011). […] Apoptosis analyses were performed using PI staining as described in Mauro et al., 2011. Additional details are provided in the Supplemental Experimental Procedures.

Gadd45β binding to MKK7 = target: T1, Gadd45β binding to MKK7 (Homo sapiens, UniProt O14733); assay: ELISA Gadd45β/MKK7 competition assay
T1 construct: Full-length human (h)MKK7 was expressed as a protein fused to an N-terminal GST tag (GST-MKK7); made in house
T1 sequence (O14733 1-419): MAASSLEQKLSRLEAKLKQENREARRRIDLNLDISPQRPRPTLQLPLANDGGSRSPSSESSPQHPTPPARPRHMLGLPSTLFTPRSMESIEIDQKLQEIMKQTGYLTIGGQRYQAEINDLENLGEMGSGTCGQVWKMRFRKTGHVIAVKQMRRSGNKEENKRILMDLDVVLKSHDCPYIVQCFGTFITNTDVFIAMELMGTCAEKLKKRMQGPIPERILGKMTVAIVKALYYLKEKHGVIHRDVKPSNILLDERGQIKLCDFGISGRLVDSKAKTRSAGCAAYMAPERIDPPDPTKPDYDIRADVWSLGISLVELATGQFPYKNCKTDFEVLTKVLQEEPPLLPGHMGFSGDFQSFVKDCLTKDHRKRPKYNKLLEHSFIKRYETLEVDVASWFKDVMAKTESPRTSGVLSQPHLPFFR
Method: as §1
Proteins were purified as described in Tornatore et al., 2008. Individual peptides were synthesised as reported in Sandomenico et al., 2012. […] Peptide identity and purity were determined using liquid chromatography-mass spectrometry (LC-MS). […]
Recombinant proteins were purified as described previously (Tornatore et al., 2008). Briefly, full-length human (h)GADD45β was expressed as a protein fused to a poly-histidine (His6) tag and purified by affinity chromatography using His-Trap columns (GE Healthcare). […] Full-length human (h)MKK7 was expressed as a protein fused to an N-terminal GST tag (GST-MKK7), purified using GST-Trap as above, and then used for ELISA analyses. […] The kinase domain (KD) of hMKK7 (amino acids 101-405) was expressed as a protein fused to an N-terminal His6 tag in E. coli (BL21[DE3] strain) using the pETDuet-1 vector (Novagen). […]

Gadd45β/MKK7 complex = target: T2, Gadd45β/MKK7 complex (Homo sapiens, UniProt O14733); assay: co-immunoprecipitation assay; type: binding; conditions: anti-FLAG immunoprecipitates, HEK-293T lysates
T2 construct: expressed in transfected cells; host or cells: human HEK-293T
T2 sequence (O14733 1-419): T1 sequence (O14733 1-419)
Method: as §1
Co-immunoprecipitation assays were performed as described previously (Papa et al., 2004). Briefly, human HEK-293T cells were seeded at a density of 1.8-2.2×10^6 cells/dish in […] tissue-culture dishes and then transfected with pcDNA-FLAG-hMKK7 and pcDNA-HA-hGADD45β by using the calcium phosphate precipitation method (Papa et al., 2004). 48 hr after transfection, cells were washed with PBS and then lysed in lysis buffer supplemented with protease inhibitors (1 mM phenylmethylsulfonylfluoride, 10 μM chymostatin, 2 μg/mL aprotinin, 2 μg/mL leupeptin; Roche) for 30 min in ice. Cell lysates were cleared by centrifugation at 45,000×g for 40 min and then used for co-immunoprecipitations with anti-FLAG M2 Affinity Gel (Sigma-Aldrich), binding to FLAG-tagged MKK7. Western blots were developed using an anti-HA (binding to HA-hGADD45β) or an anti-MKK7 antibody. […]

[3] = mouse, in vivo, iv, 10 mg/kg
Method: as §2

CC(=O)N[C@H](Cc1ccc(O)cc1)C(=O)N[C@H](CCCNC(=N)N)C(=O)N[C@H](Cc1ccccc1)C(N)=O [DTP3, Acetyl-Tyr-Arg-Phe-NH2]
predicted dose required to achieve the therapeutic plasma concentration of 1 μM at the steady state (k0) [1]: 0.81 mg/kg/h | cytotoxic activity in multiple myeloma cell lines [2]: potent and selective capacity to kill multiple myeloma cells via apoptosis | Gadd45β/MKK7 inhibitor activity (Gadd45β binding to MKK7): sub-nM | stability in vitro (Gadd45β binding to MKK7; before and after 48-hr pre-incubation with human serum at 37° C.): high stability in vitro | disruption of the Gadd45β/MKK7 complex (Gadd45β/MKK7 complex): disruption of the Gadd45β/MKK7 complex | plasma clearance (CL) compared with z-DTP2 [3]: significantly lower | terminal half-life (t1/2) compared with z-DTP2 [3]: somewhat shorter | volume of distribution (Vd) compared with z-DTP2 [3]: much lower
